From patent publication US11173150B2, “Method for diagnosing, preventing, and treating neurological diseases” (United States Government As Represented By The Department …, priority 2010, dated 2021)
In brackets after ≈: the same amount, converted by molar mass. Like-named read-outs stand apart in the source and are kept apart here. Bridge positions count the residues as written; N and C are the ends. Square brackets hold non-standard residues; d marks the D form. Peptide text beside a SMILES is read from it. * marks the point of attachment. Octanoyl(6-Me) = CCC(C)CCCCC(=O)*; Dab = NCC[CH](N)C(=O)O

Columns and labels:
Desulfovibrio = assay: Antimicrobial susceptibility testing, CLSI serial two-fold plate dilution; type: cell-based
[1] = cited from earlier work
tetanus toxin = tetanus toxin (Clostridium tetani, UniProt P04958); conditions: cited from earlier work
clostridia = conditions: cited from earlier work
[2] = Desulfovibrio, Desulfovibrio strain 8951, read-out: MIC
[3] = Desulfovibrio, Desulfovibrio strain 11232, read-out: MIC
[4] = Desulfovibrio, Desulfovibrio strain 11437, read-out: MIC
[5] = Desulfovibrio, Desulfovibrio strain 11789, read-out: MIC
[6] = Desulfovibrio, Desulfovibrio strain 11830, read-out: MIC
[7] = Desulfovibrio, Desulfovibrio strain 12379, read-out: MIC
[8] = Desulfovibrio, Desulfovibrio strain 13966, read-out: MIC
[9] = Desulfovibrio, Desulfovibrio type strain 29098^T, read-out: MIC
[10] = Desulfovibrio type strain 7757^T
[11] = Desulfovibrio type strain 29098^T

tetanus toxin, sequence (P04958 whole entry, looked up): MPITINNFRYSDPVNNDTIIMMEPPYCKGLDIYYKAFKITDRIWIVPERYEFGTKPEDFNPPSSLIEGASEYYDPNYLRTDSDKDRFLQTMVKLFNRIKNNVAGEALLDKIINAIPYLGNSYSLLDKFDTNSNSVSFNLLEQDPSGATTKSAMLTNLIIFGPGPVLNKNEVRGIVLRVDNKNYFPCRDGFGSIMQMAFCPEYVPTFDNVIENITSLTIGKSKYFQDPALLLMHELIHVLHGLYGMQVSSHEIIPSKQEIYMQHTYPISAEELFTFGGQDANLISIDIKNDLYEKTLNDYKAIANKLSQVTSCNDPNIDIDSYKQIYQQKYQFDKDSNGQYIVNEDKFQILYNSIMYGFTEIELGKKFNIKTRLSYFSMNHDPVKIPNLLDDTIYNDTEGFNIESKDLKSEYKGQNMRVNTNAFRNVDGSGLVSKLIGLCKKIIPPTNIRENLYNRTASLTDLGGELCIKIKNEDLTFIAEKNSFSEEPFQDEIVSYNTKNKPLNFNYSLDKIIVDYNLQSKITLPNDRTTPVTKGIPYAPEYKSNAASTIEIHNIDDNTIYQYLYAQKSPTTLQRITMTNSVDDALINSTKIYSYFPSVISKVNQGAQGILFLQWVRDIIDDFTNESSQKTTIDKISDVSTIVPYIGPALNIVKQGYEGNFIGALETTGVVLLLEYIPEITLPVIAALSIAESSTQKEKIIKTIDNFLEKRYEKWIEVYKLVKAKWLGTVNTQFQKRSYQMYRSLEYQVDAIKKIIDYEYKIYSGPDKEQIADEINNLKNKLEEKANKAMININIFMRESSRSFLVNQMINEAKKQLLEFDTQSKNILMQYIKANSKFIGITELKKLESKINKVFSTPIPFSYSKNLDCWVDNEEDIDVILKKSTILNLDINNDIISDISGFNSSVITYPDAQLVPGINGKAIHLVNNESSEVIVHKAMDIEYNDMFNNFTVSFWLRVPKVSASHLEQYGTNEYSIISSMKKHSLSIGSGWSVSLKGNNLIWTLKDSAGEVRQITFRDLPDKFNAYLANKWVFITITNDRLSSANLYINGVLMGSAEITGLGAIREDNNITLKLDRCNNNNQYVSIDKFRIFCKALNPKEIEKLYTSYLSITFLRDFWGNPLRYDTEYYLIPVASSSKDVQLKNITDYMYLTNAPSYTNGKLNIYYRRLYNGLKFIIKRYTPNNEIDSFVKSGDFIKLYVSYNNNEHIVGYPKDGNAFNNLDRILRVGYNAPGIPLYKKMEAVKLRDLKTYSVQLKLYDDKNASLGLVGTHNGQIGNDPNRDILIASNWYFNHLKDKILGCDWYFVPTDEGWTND

## C[C@H]1[C@H](NC(=O)/C(=N\OC(C)(C)C(=O)O)c2csc(N)n2)C(=O)N1S(=O)(=O)O [Aztreonam]
Desulfovibrio; Desulfovibrio, Desulfovibrio strain 4019
  MIC: 512 mg/L (≈ 1180 µM)
Desulfovibrio; Desulfovibrio, Desulfovibrio strain 8381
  MIC: 128 mg/L (≈ 294 µM)
Desulfovibrio; [2]
  MIC: 64 mg/L (≈ 147 µM)
Desulfovibrio; Desulfovibrio, Desulfovibrio strain 9070
  MIC: 512 mg/L (≈ 1180 µM)
Desulfovibrio; [3]
  MIC: 64 mg/L (≈ 147 µM)
Desulfovibrio; [4]
  MIC: 64 mg/L (≈ 147 µM)
Desulfovibrio; [5]
  MIC: 32 mg/L (≈ 73.5 µM)
Desulfovibrio; [6]
  MIC: 64 mg/L (≈ 147 µM)
Desulfovibrio; [7]
  MIC: 16 mg/L (≈ 36.7 µM)
Desulfovibrio; [8]
  MIC: 24 mg/L (≈ 55.1 µM)
Desulfovibrio; [9]
  MIC: 32 mg/L (≈ 73.5 µM)
[1]; oral
  Absorption when given by the oral route: virtually unabsorbed

## NC[C@H]1O[C@H](O[C@H]2[C@H](O)[C@@H](O[C@H]3O[C@H](CO)[C@@H](O)[C@H](N)[C@H]3O)[C@H](N)C[C@@H]2N)[C@H](O)[C@@H](O)[C@@H]1O [Kanamycin]
Desulfovibrio; Desulfovibrio, Desulfovibrio strain 4019, read-out: MIC
  MIC: 512 mg/L (≈ 1060 µM)
Desulfovibrio; Desulfovibrio, Desulfovibrio strain 8236, read-out: MIC
  MIC: 512 mg/L (≈ 1060 µM)
Desulfovibrio; Desulfovibrio, Desulfovibrio strain 8381, read-out: MIC
  MIC: 256 mg/L (≈ 528 µM)
Desulfovibrio; Desulfovibrio, Desulfovibrio strain 8907, read-out: MIC
  MIC: 256 mg/L (≈ 528 µM)
Desulfovibrio; Desulfovibrio, Desulfovibrio strain 8933, read-out: MIC
  MIC: 512 mg/L (≈ 1060 µM)
Desulfovibrio; [2]
  MIC: 512 mg/L (≈ 1060 µM)
Desulfovibrio; Desulfovibrio, Desulfovibrio strain 9070, read-out: MIC
  MIC: 512 mg/L (≈ 1060 µM)
Desulfovibrio; Desulfovibrio, Desulfovibrio strain 9120, read-out: MIC
  MIC: 256 mg/L (≈ 528 µM)
Desulfovibrio; Desulfovibrio, Desulfovibrio strain 9706, read-out: MIC
  MIC: 256 mg/L (≈ 528 µM)
Desulfovibrio; Desulfovibrio, Desulfovibrio strain 9976, read-out: MIC
  MIC: 128 mg/L (≈ 264 µM)
Desulfovibrio; Desulfovibrio, Desulfovibrio strain 10831, read-out: MIC
  MIC: 256 mg/L (≈ 528 µM)
Desulfovibrio; Desulfovibrio, Desulfovibrio strain 11081, read-out: MIC
  MIC: 512 mg/L (≈ 1060 µM)
Desulfovibrio; Desulfovibrio, Desulfovibrio strain 11094, read-out: MIC
  MIC: 512 mg/L (≈ 1060 µM)
Desulfovibrio; [3]
  MIC: 256 mg/L (≈ 528 µM)
Desulfovibrio; Desulfovibrio, Desulfovibrio strain 11346, read-out: MIC
  MIC: 512 mg/L (≈ 1060 µM)
Desulfovibrio; Desulfovibrio, Desulfovibrio strain 11378, read-out: MIC
  MIC: 512 mg/L (≈ 1060 µM)
Desulfovibrio; [4]
  MIC: 128 mg/L (≈ 264 µM)
Desulfovibrio; Desulfovibrio, Desulfovibrio strain 11568, read-out: MIC
  MIC: 512 mg/L (≈ 1060 µM)
Desulfovibrio; Desulfovibrio, Desulfovibrio strain 11623, read-out: MIC
  MIC: 256 mg/L (≈ 528 µM)
Desulfovibrio; Desulfovibrio, Desulfovibrio strain 11717, read-out: MIC
  MIC: 512 mg/L (≈ 1060 µM)
Desulfovibrio; [5]
  MIC: 256 mg/L (≈ 528 µM)
Desulfovibrio; [6]
  MIC: 128 mg/L (≈ 264 µM)
Desulfovibrio; Desulfovibrio, Desulfovibrio strain 11949, read-out: MIC
  MIC: 128 mg/L (≈ 264 µM)
Desulfovibrio; [7]
  MIC: 512 mg/L (≈ 1060 µM)
Desulfovibrio; [8]
  MIC: 512 mg/L (≈ 1060 µM)
Desulfovibrio; Desulfovibrio, Desulfovibrio type strain 7757^T, read-out: MIC
  MIC: 512 mg/L (≈ 1060 µM)
Desulfovibrio; [9]
  MIC: 128 mg/L (≈ 264 µM)
[1]; in vivo, po
  Absorption when given by the oral route: virtually unabsorbed

## C[C@H](CS)C(=O)N1CCC[C@H]1C(=O)O [Captopril]
Tetanus toxin
  Effect on tetanus toxin in vitro: inactivates

## CCC(C)CCCCC(=O)NC(CCN)C(=O)NC(C(=O)NC(CCN)C(=O)NC1CCNC(=O)C(C(C)O)NC(=O)C(CCN)NC(=O)C(CCN)NC(=O)C(CC(C)C)NC(=O)C(Cc2ccccc2)NC(=O)C(CCN)NC1=O)C(C)O (stereo not shown) [Polymyxin B] ({Octanoyl(6-Me)}-[Dab]T[Dab][Dab][Dab]FL[Dab][Dab]T; lactam 4-C; configuration not given here)
Desulfovibrio; Desulfovibrio strain 4019
  MIC: 256 mg/L (≈ 213 µM)
Desulfovibrio; Desulfovibrio strain 8236
  MIC: 256 mg/L (≈ 213 µM)
Desulfovibrio; Desulfovibrio strain 8381
  MIC: >512 mg/L
Desulfovibrio; Desulfovibrio strain 8907
  MIC: >512 mg/L
Desulfovibrio; Desulfovibrio strain 8933
  MIC: >512 mg/L
Desulfovibrio; Desulfovibrio strain 8951
  MIC: >512 mg/L
Desulfovibrio; Desulfovibrio strain 9070
  MIC: >512 mg/L
Desulfovibrio; Desulfovibrio strain 9120
  MIC: >512 mg/L
Desulfovibrio; Desulfovibrio strain 9706
  MIC: >512 mg/L
Desulfovibrio; Desulfovibrio strain 9976
  MIC: >512 mg/L
Desulfovibrio; Desulfovibrio strain 10831
  MIC: 128 mg/L (≈ 106 µM)
Desulfovibrio; Desulfovibrio strain 11081
  MIC: 256 mg/L (≈ 213 µM)
Desulfovibrio; Desulfovibrio strain 11094
  MIC: 256 mg/L (≈ 213 µM)
Desulfovibrio; Desulfovibrio strain 11232
  MIC: >512 mg/L
Desulfovibrio; Desulfovibrio strain 11346
  MIC: >512 mg/L
Desulfovibrio; Desulfovibrio strain 11378
  MIC: 256 mg/L (≈ 213 µM)
Desulfovibrio; Desulfovibrio strain 11437
  MIC: >512 mg/L
Desulfovibrio; Desulfovibrio strain 11568
  MIC: >512 mg/L
Desulfovibrio; Desulfovibrio strain 11623
  MIC: >512 mg/L
Desulfovibrio; Desulfovibrio strain 11717
  MIC: 256 mg/L (≈ 213 µM)
Desulfovibrio; Desulfovibrio strain 11789
  MIC: 16 mg/L (≈ 13.3 µM)
Desulfovibrio; Desulfovibrio strain 11830
  MIC: 128 mg/L (≈ 106 µM)
Desulfovibrio; Desulfovibrio strain 11949
  MIC: >512 mg/L
Desulfovibrio; Desulfovibrio strain 12379
  MIC: 8 mg/L (≈ 6.65 µM)
Desulfovibrio; Desulfovibrio strain 13966
  MIC: >512 mg/L
Desulfovibrio; [10]
  MIC: 256 mg/L (≈ 213 µM)
Desulfovibrio; [11]
  MIC: 256 mg/L (≈ 213 µM)
[1]; oral
  Absorption when given by the oral route: virtually unabsorbed
  Penetration of the intestinal mucosa: do not penetrate the intestinal mucosa

## Trimethoprim/sulfamethoxazole [TMX/Sul]
Desulfovibrio; Desulfovibrio strain 8381
  MIC: 256 mg/L
Desulfovibrio; Desulfovibrio strain 8907
  MIC: 512 mg/L
Desulfovibrio; Desulfovibrio strain 8933
  MIC: 256 mg/L
Desulfovibrio; Desulfovibrio strain 8951
  MIC: 256 mg/L
Desulfovibrio; Desulfovibrio strain 9070
  MIC: >512 mg/L
Desulfovibrio; Desulfovibrio strain 9120
  MIC: 256 mg/L
Desulfovibrio; Desulfovibrio strain 9706
  MIC: 256 mg/L
Desulfovibrio; Desulfovibrio strain 9976
  MIC: 256 mg/L
Desulfovibrio; Desulfovibrio strain 11232
  MIC: 128 mg/L
Desulfovibrio; Desulfovibrio strain 11346
  MIC: 512 mg/L
Desulfovibrio; Desulfovibrio strain 11437
  MIC: 4 mg/L
Desulfovibrio; Desulfovibrio strain 11568
  MIC: >512 mg/L
Desulfovibrio; Desulfovibrio strain 11623
  MIC: 512 mg/L
Desulfovibrio; Desulfovibrio strain 11949
  MIC: 512 mg/L
Desulfovibrio; Desulfovibrio strain 13966
  MIC: 512 mg/L
Desulfovibrio; [10]
  MIC: >512 mg/L
Desulfovibrio; [11]
  MIC: 256 mg/L

## ramoplanin
clostridia
  Activity against clostridia: very good activity
[1]; humans
  Systemic absorption in humans: not detectably absorbed

## Colistin
Desulfovibrio; Desulfovibrio strain 4019
  MIC: >512 mg/L
Desulfovibrio; Desulfovibrio strain 8236
  MIC: >512 mg/L
Desulfovibrio; Desulfovibrio strain 8381
  MIC: >512 mg/L
Desulfovibrio; Desulfovibrio strain 8907
  MIC: >512 mg/L
Desulfovibrio; Desulfovibrio strain 8933
  MIC: >512 mg/L
Desulfovibrio; Desulfovibrio strain 8951
  MIC: >512 mg/L
Desulfovibrio; Desulfovibrio strain 9070
  MIC: >512 mg/L
Desulfovibrio; Desulfovibrio strain 9120
  MIC: >512 mg/L
Desulfovibrio; Desulfovibrio strain 9706
  MIC: >512 mg/L
Desulfovibrio; Desulfovibrio strain 9976
  MIC: >512 mg/L
Desulfovibrio; Desulfovibrio strain 10831
  MIC: >512 mg/L
Desulfovibrio; Desulfovibrio strain 11081
  MIC: >512 mg/L
Desulfovibrio; Desulfovibrio strain 11094
  MIC: >512 mg/L
Desulfovibrio; Desulfovibrio strain 11232
  MIC: >512 mg/L
Desulfovibrio; Desulfovibrio strain 11346
  MIC: >512 mg/L
Desulfovibrio; Desulfovibrio strain 11378
  MIC: >512 mg/L
Desulfovibrio; Desulfovibrio strain 11437
  MIC: >512 mg/L
Desulfovibrio; Desulfovibrio strain 11568
  MIC: >512 mg/L
Desulfovibrio; Desulfovibrio strain 11623
  MIC: >512 mg/L
Desulfovibrio; Desulfovibrio strain 11717
  MIC: >512 mg/L
Desulfovibrio; Desulfovibrio strain 11789
  MIC: >512 mg/L
Desulfovibrio; Desulfovibrio strain 11830
  MIC: >512 mg/L
Desulfovibrio; Desulfovibrio strain 11949
  MIC: >512 mg/L
Desulfovibrio; Desulfovibrio strain 12379
  MIC: >512 mg/L
Desulfovibrio; Desulfovibrio strain 13966
  MIC: >512 mg/L
Desulfovibrio; [10]
  MIC: >512 mg/L
Desulfovibrio; [11]
  MIC: >512 mg/L
[1]; oral
  Absorption when given by the oral route: virtually unabsorbed
  Penetration of the intestinal mucosa: do not penetrate the intestinal mucosa
